The results in this text go back to EPA's ToxValDB 9.5 (doi:10.2903/j.efsa.2005.46r).

Converted amounts (≈) assume the structure as drawn.

The subject of one data set is Typhlodromus pyri. Conditions: not reported; mortality.
In the next data set the test system is Apis mellifera. To be noted: acute, mortality.
In a further data set the test system is Bibionidae. Conditions: chronic/long-term; duration: 28 days; development.
A further data set deals with Chrysoperla externa. Conditions: not reported; mortality.
The subject of the next data set is Pimephales promelas. To be noted: chronic/long-term; duration: 36 days; time to hatch.
The next data set concerns Daphnia magna. To be noted: chronic/long-term; duration: 21 days; reproduction.
Another data set has as its system Mus musculus. To be noted: chronic; duration: 18 months; M; body weight.
Another data set deals with Tagia sp. Conditions: acute; duration: 14 days; mortality.
The test system of a further data set is Colinus virginianus. To be noted: acute; oral; mortality.
Another data set relates to Oncorhynchus mykiss. To be noted: for NOEC: chronic/long-term.

As for `CNC(=O)/C(=N/OC)c1ccccc1COc1cc(C)ccc1C` [Dimoxystrobin], the LEL in the data set with Typhlodromus pyri and in the data set with Chrysoperla externa was 200 g/ha in each case. The LD50 in the data set with Apis mellifera (dermal) was greater than 100 µg/piece; in the data set with Apis mellifera (duration: 48 hours, oral, unspecified) it was greater than 79.4 µg/piece; in the data set with Colinus virginianus, greater than 2000 mg/kg. For the same compound, the LC50 in the data set on Rattus norvegicus (acute, oral, diet, mortality) was 5 mg/kg-day; in the data set on Anas platyrhynchos (short-term, oral, feed, mortality) it was greater than 232 mg/kg-day; with Tagia sp., 47.3 mg/kg; in the data set with Oncorhynchus mykiss (acute, duration: 96 hours, mortality) it was 0.0434 µg/mL (≈ 0.133 µM). The no-observed-adverse-effect level (NOAEL) – broadly, the highest tested level that showed no adverse finding – in the data set on Rattus norvegicus (short-term, duration: 7 days, clinical chemistry) worked out at 4 mg/kg-day; in the data set on Mus musculus, 4 mg/kg-day. Besides, the NOEC in the data set with Bibionidae stood at 0.01 mg/L; in the data set with Anas platyrhynchos (reproductive) it was 36 mg/kg-day; in the data set on Pimephales promelas, 0.016 mg/L; in the data set with Daphnia magna it was 0.0125 mg/L; in the data set on Oncorhynchus mykiss (duration: 28 days, mortality) it was 0.01 mg/L; in the data set on Oncorhynchus mykiss (duration: 97 days, behavior), 0.000316 mg/L.
